Data on two compounds can be found in US9867809B2, “Encapsulated active ingredients for controlled enteric release” (Kemin Industries, Inc., priority 2015, dated 2018).

The test system of data set [1] is male Cobb×Cobb 500 broiler chickens. Put plainly: Performance trial in broiler chickens. The format is in vivo, chicken. The text has this:
A chicken, broiler performance trial was completed to understand if granules with different in-vitro dissolution rates would perform differently in an animal model. […] Therefore two different granules were made, one with a fast dissolution, and one with a slow dissolution. […] The experiment used 72 cages of 10 male Cobb×Cobb 500 broiler chickens. The treatments were replicated in eighteen blocks where the four treatments were randomized within each block. All the treatments contained equal amount of zinc and treatments B, C and D had same amount of butyric acid. The diet given in Tables 5 and 6 was supplemented with the treatments in Table 4. The starter diet was fed day 0 to 14 and the grower diet was fed day 14 to 28. All diets were fed as non-pelleted mash feed. Bird weights and feed consumption by cage were recorded on Days 0, 14, 21, 28.

Data set [2] is described as follows: Butyric acid in intestinal contents and excreta of broilers by gas chromatography. Type of data set: in vivo, chicken. The conditions noted are these: day 28, birds fed the supplemented diet. The method, then:
On days 14 and 28, after weighing, 4 birds per cage were harvested. From each of the harvested birds, a 1 inch section from the beginning of the ileum was cut off and flash frozen. The remaining intestinal tract was cut into 3 sections (upper, middle and cecal), the intestinal contents for each section were pooled by cage, and frozen in liquid nitrogen. A sample of excreta was collected by cage and frozen.
The samples of the feed and intestinal contents were analyzed for butyric acid by gas chromatography.

[3] abbreviates: after 28 days, supplement in basal diet, 153 ppm zinc.

With `O=S(=O)([O-])[O-].[Zn+2]` [Zinc Sulfate Powder, Zinc Sulfate, reference compound], in data set [1] (in vivo), the “Avg. Wt.” value worked out at 1.010 kg, the “Feed Conversion” value is recorded as 1.620 and the “Feed Intake” value stood at 10.93.
Regarding `CCCC(=O)[O-].CCCC(=O)[O-].[Zn+2]` [ZBA Powder, zinc salt of butyric acid in a molar ratio of 1:2], the “butyric acid in the ileal contents” value in data set [2] was “no detectible butyric acid”. Besides, in data set [1] (setting [3]), the “Avg. Wt.” value worked out at 1.043 kg, the “Feed Conversion” value is recorded as 1.589 and the “Feed Intake” value amounted to 11.06.
